{"source": "patent US20210145965A1", "about": "“METHOD OF USING CHECKPOINT KINASE INHIBITOR THERAPY TO MODULATE ANTI-TUMORAL RESPONSE AGAINST CANCER AND SENSITIZE GLIOMAS TO IMMUNOTHERAPY” (NORTHWESTERN UNIVERSITY, priority 2019, published 2021)", "key": {"GL261 cells [1]": {"test_system": "GL261 cells", "assay": "Percent viability of GL261 cells treated with TMZ or iCHEK1/2", "assay_type": "cell-based, mouse"}, "GL261 cells [2]": {"test_system": "GL261 cells", "assay": "Western blot of DNA damage in GL261 cells", "assay_type": "cell-based, mouse", "conditions": "8 nM, 48 h of treatment, compared to TMZ or untreated GL261 cells"}, "GL261 cells [3]": {"test_system": "GL261 cells", "assay": "Expression of MHC-I and PDL1 in GL261 cells", "assay_type": "cell-based, mouse", "conditions": "8 nM, 3 cycles (48 h/cycle), compared to TMZ or untreated"}, "[4]": {"test_system": "GL261 intracranial gliomas", "assay": "PD1+ T cells in brain and spleen of GL261 intracranial tumor bearing mice by flow cytometry", "assay_type": "in vivo, C57BL/6 mice", "conditions": "10 mg/kg i.p. on 7th and 9th day, sacrificed on 13th day"}}}
{"compound": "Cn1nnc2c(C(N)=O)ncn2c1=O", "note": "[TMZ, temozolomide]", "values": [{"measurement": "concentration leading to a decrease in viability of glioma cells", "setting": "GL261 cells [1]; treatment for 72 h", "value": 500, "unit": "µM"}]}
{"compound": "COc1cccc(OCCCN)c1-c1cc(Nc2cnc(C#N)cn2)n[nH]1", "note": "[iCHEK1/2, Prexasertib]", "values": [{"measurement": "concentration at which viability of the GL261 cells started to be affected", "setting": "GL261 cells [1]", "value": "less than 0.08 nM"}, {"measurement": "DNA damage signal (western blot)", "setting": "GL261 cells [2]", "value": "intense signal of DNA damage"}, {"measurement": "expression of MHC-I (both MHC class and PDL1)", "setting": "GL261 cells [3]", "value": "increased expression of MHC-I"}, {"measurement": "activated T-cells pool in the peripheral compartment (spleen)", "setting": "[4]", "value": "no significant difference"}, {"measurement": "percentage of PD1+ T cells in the brain", "setting": "[4]; compared to TMZ or vehicle", "value": "decrease in the percentage of PD1+ T cells"}]}
